What all share (test): cell-based
The target of assay [1] is hNav1.7 (Homo sapiens, UniProt Q15858). It is filed as cell-based. The following applies: read-out: IWQ Use Nav1.7.
For assay [2], the target named is hNav1.3 (Homo sapiens, UniProt Q9NY46). To be noted: IonWorks Quattro, read-out: IWQ Use Nav1.3.
Assay [3] has as its target hNav1.5 (Homo sapiens, UniProt Q14524).
Setting [4] is: IonWorks Quattro, Use, read-out: IWQ Use Nav1.5.

Like-named read-outs stand apart in the source and are kept apart here. Positions of bridges follow the written chain, without caps; N, C: chain ends. Non-standard residues stand in square brackets, D forms with d. Residues, ends and D or L forms follow the SMILES beside them. Arg(Me2s) = CN=C(NC)NCCC[C@H](N)C(=O)O

hNav1.3, sequence (Q9NY46 whole entry, looked up): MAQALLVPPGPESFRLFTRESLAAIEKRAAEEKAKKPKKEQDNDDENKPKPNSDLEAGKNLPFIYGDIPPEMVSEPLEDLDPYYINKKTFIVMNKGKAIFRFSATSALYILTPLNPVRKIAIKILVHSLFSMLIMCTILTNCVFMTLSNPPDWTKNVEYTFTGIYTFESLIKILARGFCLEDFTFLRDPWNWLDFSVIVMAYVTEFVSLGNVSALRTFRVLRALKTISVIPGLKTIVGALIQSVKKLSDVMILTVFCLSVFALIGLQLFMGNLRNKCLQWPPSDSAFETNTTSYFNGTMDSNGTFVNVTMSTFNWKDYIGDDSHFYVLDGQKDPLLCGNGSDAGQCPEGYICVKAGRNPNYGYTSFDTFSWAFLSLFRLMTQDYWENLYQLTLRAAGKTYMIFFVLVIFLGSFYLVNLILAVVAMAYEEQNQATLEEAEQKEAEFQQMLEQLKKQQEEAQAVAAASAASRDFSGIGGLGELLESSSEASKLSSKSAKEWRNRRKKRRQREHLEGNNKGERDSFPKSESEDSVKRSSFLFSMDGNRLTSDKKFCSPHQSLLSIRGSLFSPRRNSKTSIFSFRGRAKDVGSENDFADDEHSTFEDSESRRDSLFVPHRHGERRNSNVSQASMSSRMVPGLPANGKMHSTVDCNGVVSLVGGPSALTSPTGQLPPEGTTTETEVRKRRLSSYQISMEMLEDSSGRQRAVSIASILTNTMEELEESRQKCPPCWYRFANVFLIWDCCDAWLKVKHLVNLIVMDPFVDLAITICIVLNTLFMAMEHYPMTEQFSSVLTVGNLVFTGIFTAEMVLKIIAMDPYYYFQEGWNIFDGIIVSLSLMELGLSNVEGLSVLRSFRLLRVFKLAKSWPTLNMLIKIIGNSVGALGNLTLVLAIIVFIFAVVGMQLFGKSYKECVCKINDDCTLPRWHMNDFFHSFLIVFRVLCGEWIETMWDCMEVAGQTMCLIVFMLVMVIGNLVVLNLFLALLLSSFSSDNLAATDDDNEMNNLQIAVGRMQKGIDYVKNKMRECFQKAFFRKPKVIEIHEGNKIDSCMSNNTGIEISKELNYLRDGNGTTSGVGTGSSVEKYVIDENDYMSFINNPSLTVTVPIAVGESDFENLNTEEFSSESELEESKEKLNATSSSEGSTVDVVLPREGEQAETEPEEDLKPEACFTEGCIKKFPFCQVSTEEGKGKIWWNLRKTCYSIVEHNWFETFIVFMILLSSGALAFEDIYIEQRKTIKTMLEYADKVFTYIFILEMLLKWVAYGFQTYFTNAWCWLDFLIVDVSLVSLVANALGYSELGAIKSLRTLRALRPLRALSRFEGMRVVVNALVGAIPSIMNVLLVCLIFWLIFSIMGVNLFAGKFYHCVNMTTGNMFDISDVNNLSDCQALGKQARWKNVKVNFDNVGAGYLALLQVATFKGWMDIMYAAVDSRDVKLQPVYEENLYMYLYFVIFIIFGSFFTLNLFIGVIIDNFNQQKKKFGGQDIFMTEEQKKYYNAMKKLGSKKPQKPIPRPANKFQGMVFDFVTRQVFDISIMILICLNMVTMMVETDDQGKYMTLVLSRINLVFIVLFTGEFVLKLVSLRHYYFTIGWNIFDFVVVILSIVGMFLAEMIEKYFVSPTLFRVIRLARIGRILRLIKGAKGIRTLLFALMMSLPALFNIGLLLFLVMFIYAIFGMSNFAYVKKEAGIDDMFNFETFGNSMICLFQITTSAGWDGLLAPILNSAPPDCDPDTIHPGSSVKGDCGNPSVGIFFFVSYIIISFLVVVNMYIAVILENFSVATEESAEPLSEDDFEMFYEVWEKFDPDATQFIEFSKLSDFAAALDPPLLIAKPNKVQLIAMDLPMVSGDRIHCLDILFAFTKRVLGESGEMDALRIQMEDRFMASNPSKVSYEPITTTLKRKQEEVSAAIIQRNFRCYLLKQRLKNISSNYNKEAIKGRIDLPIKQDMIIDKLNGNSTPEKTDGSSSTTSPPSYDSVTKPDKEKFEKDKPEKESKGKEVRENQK
hNav1.7, sequence (Q15858 whole entry, looked up): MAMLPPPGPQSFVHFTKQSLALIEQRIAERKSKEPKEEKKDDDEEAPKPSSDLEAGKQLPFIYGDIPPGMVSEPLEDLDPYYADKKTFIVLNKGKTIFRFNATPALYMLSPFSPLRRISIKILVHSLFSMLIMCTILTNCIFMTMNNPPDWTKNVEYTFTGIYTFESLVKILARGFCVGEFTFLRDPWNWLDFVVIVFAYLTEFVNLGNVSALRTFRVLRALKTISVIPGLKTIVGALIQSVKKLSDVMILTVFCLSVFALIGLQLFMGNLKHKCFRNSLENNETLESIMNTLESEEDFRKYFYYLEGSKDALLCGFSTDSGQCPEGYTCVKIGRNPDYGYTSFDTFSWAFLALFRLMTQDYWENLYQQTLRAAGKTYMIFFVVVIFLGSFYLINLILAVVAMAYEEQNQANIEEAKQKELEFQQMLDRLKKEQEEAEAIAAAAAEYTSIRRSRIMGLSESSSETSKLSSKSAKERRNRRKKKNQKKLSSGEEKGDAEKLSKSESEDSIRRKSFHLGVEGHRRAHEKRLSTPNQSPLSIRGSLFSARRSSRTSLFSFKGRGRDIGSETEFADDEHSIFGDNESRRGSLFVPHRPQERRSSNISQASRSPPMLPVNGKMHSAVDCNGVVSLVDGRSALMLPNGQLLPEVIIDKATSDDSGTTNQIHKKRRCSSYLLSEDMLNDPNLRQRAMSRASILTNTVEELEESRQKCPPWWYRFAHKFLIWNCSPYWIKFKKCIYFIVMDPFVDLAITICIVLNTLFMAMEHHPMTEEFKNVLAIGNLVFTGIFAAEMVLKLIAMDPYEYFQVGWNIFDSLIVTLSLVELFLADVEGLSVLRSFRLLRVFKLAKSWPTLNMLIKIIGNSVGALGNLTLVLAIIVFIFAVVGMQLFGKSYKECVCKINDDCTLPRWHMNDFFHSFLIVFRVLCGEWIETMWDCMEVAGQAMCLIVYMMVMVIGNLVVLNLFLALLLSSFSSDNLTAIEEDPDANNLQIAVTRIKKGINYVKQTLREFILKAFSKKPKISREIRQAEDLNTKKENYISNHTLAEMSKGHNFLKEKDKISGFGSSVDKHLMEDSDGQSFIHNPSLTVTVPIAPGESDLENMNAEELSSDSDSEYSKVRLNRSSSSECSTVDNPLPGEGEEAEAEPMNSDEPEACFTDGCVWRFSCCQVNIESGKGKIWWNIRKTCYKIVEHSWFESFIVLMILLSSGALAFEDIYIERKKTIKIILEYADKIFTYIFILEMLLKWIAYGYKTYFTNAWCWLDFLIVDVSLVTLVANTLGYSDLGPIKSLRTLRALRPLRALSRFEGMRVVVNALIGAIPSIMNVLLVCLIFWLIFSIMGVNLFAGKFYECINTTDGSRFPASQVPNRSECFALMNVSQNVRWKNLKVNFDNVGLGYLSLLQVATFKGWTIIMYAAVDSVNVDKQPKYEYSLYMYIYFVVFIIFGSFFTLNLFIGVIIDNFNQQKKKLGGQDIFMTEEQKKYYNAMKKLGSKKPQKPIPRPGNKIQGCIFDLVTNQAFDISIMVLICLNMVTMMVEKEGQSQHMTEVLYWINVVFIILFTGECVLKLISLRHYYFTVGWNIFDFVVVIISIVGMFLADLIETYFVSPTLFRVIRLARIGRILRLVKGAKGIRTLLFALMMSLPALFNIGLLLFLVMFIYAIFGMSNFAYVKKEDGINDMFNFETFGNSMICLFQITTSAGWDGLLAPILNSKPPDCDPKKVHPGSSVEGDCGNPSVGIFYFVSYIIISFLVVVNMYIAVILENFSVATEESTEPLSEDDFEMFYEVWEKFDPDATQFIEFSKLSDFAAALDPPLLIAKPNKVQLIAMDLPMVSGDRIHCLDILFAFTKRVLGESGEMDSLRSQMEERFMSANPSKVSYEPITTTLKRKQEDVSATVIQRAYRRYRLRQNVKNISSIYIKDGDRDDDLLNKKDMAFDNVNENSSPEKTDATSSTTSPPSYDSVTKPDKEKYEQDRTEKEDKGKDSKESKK

Regarding `CC[C@H](C)[C@@H]1NC(=O)[C@@H]2CSSC[C@@H]3NC(=O)[C@H](C(C)C)NC(=O)[C@H](CC(C)C)NC(=O)[C@H](CC(N)=O)NC(=O)[C@@H]4CCCN4C(=O)[C@H](CCCNC(=N)N)NC(=O)[C@H](CSSC[C@H](NC(=O)[C@@H](N)CC(=O)O)C(=O)N[C@@H](CC(C)C)C(=O)NCC(=O)N[C@@H](C)C(=O)N[C@@H](Cc4ccccc4)C(=O)N[C@@H](CCCNC(=N)N)C(=O)N[C@@H](CCCCN)C(=O)N2)NC(=O)[C@H](CSSC[C@@H](C(=O)N[C@@H](CCCCN)C(=O)N[C@@H](Cc2ccc(O)cc2)C(=O)N[C@H](C(=O)N[C@@H](Cc2ccccc2)C(N)=O)C(C)C)NC(=O)[C@H](Cc2c[nH]c4ccccc24)NC(=O)[C@H](CCCCN)NC(=O)[C@H](Cc2cnc[nH]2)NC(=O)[C@H](CC(C)C)NC(=O)[C@H](CCCNC(=N)N)NC(=O)[C@H](CO)NC3=O)NC(=O)[C@H](CCCCN)NC(=O)[C@H](CC(=O)O)NC(=O)[C@H](CC(N)=O)NC(=O)[C@H](CC(=O)O)NC(=O)[C@@H]2CCCN2C1=O` [compound 263] (H-DCLGAFRKCIPDNDKCCRPNLVCSRLHKWCKYVF-NH2; disulfide 2-17, 9-23, 16-30), the IC50 is 80 nM in assay [1] (IonWorks Quattro, use-dependent block, hNav1.7); 50 nM in assay [2] (use-dependent block, hNav1.3); 5 µM in assay [3] (IWQ Use Nav1.5 (μM)).

`CSCC[C@@H]1NC(=O)[C@H](Cc2ccccc2)NC(=O)CNC(=O)[C@H](CC(C)C)NC(=O)[C@@H](NC(=O)[C@@H](N)CC(=O)O)CSSC[C@@H]2NC(=O)[C@@H]3CSSC[C@@H](C(=O)N[C@@H](CCCCN)C(=O)N[C@@H](Cc4ccc(O)cc4)C(=O)N[C@H](C(=O)N[C@@H](Cc4ccccc4)C(N)=O)C(C)C)NC(=O)[C@H](Cc4c[nH]c5ccccc45)NC(=O)[C@H](CCCCN)NC(=O)[C@H](Cc4cnc[nH]4)NC(=O)[C@H]([C@@H](C)O)NC(=O)[C@H](CCCNC(=N)N)NC(=O)[C@H](CO)NC(=O)[C@H](CSSC[C@H](NC(=O)[C@H](CCCCN)NC(=O)[C@H](CCCNC(=N)N)NC1=O)C(=O)N[C@@H](CC(C)C)C(=O)N1CCC[C@H]1C(=O)N[C@@H](CC(=O)O)C(=O)N[C@@H](CC(N)=O)C(=O)N[C@@H](CC(=O)O)C(=O)N[C@@H](CCCCN)C(=O)N3)NC(=O)[C@H](C(C)C)NC(=O)[C@H](CC(C)C)NC(=O)[C@H](CC(N)=O)NC(=O)[C@@H]1CCCN1C(=O)[C@H](CCCNC(=N)N)NC2=O` [compound 303] (H-DCLGFMRKCLPDNDKCCRPNLVCSRTHKWCKYVF-NH2; disulfide 2-17, 9-23, 16-30): the IC50 in assay [1] (IonWorks Quattro, Use) worked out at 130 nM; in assay [2] (Use), 80 nM; in assay [3] (setting [4]), 8.13 µM.

In the case of `CSCC[C@@H]1NC(=O)[C@H](Cc2ccccc2)NC(=O)CNC(=O)[C@H](CC(C)C)NC(=O)[C@@H](NC(=O)[C@@H](N)CC(=O)O)CSSC[C@@H]2NC(=O)[C@@H]3CSSC[C@@H](C(=O)N[C@@H](CCCCN)C(=O)N[C@@H](Cc4ccc(O)cc4)C(=O)N[C@H](C(=O)N[C@@H](Cc4ccccc4)C(N)=O)C(C)C)NC(=O)[C@H](Cc4c[nH]c5ccccc45)NC(=O)[C@H](CCCCN)NC(=O)[C@H](Cc4c[nH]cn4)NC(=O)[C@H]([C@@H](C)O)NC(=O)[C@H](CCCNC(=N)N)NC(=O)[C@H](CO)NC(=O)[C@H](CSSC[C@H](NC(=O)[C@H](CCCCN)NC(=O)[C@H](CCCNC(=N)N)NC1=O)C(=O)N1CCC[C@H]1C(=O)N1CCC[C@H]1C(=O)N[C@@H](CC(=O)O)C(=O)N[C@@H](CC(N)=O)C(=O)N[C@@H](CC(=O)O)C(=O)N[C@@H](CCCCN)C(=O)N3)NC(=O)[C@H](C(C)C)NC(=O)[C@H](CC(C)C)NC(=O)[C@H](CC(N)=O)NC(=O)[C@@H]1CCCN1C(=O)[C@H](CCCNC(=N)N)NC2=O` [compound 308] (H-DCLGFMRKCPPDNDKCCRPNLVCSRTHKWCKYVF-NH2; disulfide 2-17, 9-23, 16-30), the IC50 in assay [1] (IonWorks Quattro, Use) is 400 nM; in assay [2] (Use) it was 240 nM; in assay [3] (setting [4]), over 5 µM.

For the molecule `CSCC[C@@H]1NC(=O)[C@H](Cc2ccccc2)NC(=O)CNC(=O)[C@H](CC(C)C)NC(=O)[C@@H](NC(=O)[C@@H](N)CC(=O)O)CSSC[C@@H]2NC(=O)[C@@H]3CSSC[C@@H](C(=O)N[C@@H](CCCCN)C(=O)N[C@@H](Cc4ccc(O)cc4)C(=O)N[C@H](C(=O)N[C@@H](Cc4ccccc4)C(N)=O)C(C)C)NC(=O)[C@H](Cc4c[nH]c5ccccc45)NC(=O)[C@H](CCCCN)NC(=O)[C@H](Cc4c[nH]cn4)NC(=O)[C@H]([C@@H](C)O)NC(=O)[C@H](CCCNC(=N)N)NC(=O)[C@H](CO)NC(=O)[C@H](CSSC[C@H](NC(=O)[C@H](CCCCN)NC(=O)[C@H](CCCNC(=N)N)NC1=O)C(=O)N[C@@H](Cc1ccc(C(=O)O)cc1)C(=O)N1CCC[C@H]1C(=O)N[C@@H](CC(=O)O)C(=O)N[C@@H](CC(N)=O)C(=O)N[C@@H](CC(=O)O)C(=O)N[C@@H](CCCCN)C(=O)N3)NC(=O)[C@H](C(C)C)NC(=O)[C@H](CC(C)C)NC(=O)[C@H](CC(N)=O)NC(=O)[C@@H]1CCCN1C(=O)[C@H](CCCNC(=N)N)NC2=O` [compound 310], the IC50 in assay [1] (IonWorks Quattro, Use) worked out at 280 nM; in assay [2] (Use), 230 nM; in assay [3] (setting [4]), 6.87 µM.

Regarding `CSCC[C@@H]1NC(=O)[C@H](Cc2ccccc2)NC(=O)CNC(=O)[C@H](CC(C)C)NC(=O)[C@@H](NC(=O)[C@@H](N)CC(=O)O)CSSC[C@@H]2NC(=O)[C@@H]3CSSC[C@@H](C(=O)N[C@@H](CCCCN)C(=O)N[C@@H](Cc4ccc(O)cc4)C(=O)N[C@H](C(=O)N[C@@H](Cc4ccccc4)C(N)=O)C(C)C)NC(=O)[C@H](Cc4c[nH]c5ccccc45)NC(=O)[C@H](CCCCN)NC(=O)[C@H](Cc4c[nH]cn4)NC(=O)[C@H]([C@@H](C)O)NC(=O)[C@H](CCCNC(=N)N)NC(=O)[C@H](CO)NC(=O)[C@H](CSSC[C@H](NC(=O)[C@H](CCCCN)NC(=O)[C@H](CCCNC(=N)N)NC1=O)C(=O)N[C@@H](Cc1ccccn1)C(=O)N1CCC[C@H]1C(=O)N[C@@H](CC(=O)O)C(=O)N[C@@H](CC(N)=O)C(=O)N[C@@H](CC(=O)O)C(=O)N[C@@H](CCCCN)C(=O)N3)NC(=O)[C@H](C(C)C)NC(=O)[C@H](CC(C)C)NC(=O)[C@H](CC(N)=O)NC(=O)[C@@H]1CCCN1C(=O)[C@H](CCCNC(=N)N)NC2=O` [compound 311], the IC50 in assay [1] (IonWorks Quattro, Use) was 190 nM; in assay [2] (Use), 40 nM; in assay [3] (setting [4]), 8.83 µM.

In the case of `CC[C@H](C)[C@@H]1NC(=O)[C@@H]2CSSC[C@@H]3NC(=O)[C@H](C(C)C)NC(=O)[C@H](CC(C)C)NC(=O)[C@H](CC(N)=O)NC(=O)[C@@H]4CCCN4C(=O)[C@H](CCCNC(=N)N)NC(=O)[C@H](CSSC[C@H](NC(=O)[C@@H](N)CC(=O)O)C(=O)N[C@@H](CC(C)C)C(=O)NCC(=O)N[C@@H](Cc4ccccc4)C(=O)N[C@@H](CCSC)C(=O)N[C@@H](CCCNC(=N)N)C(=O)N[C@@H](CCCCN)C(=O)N2)NC(=O)[C@H](CSSC[C@@H](C(=O)N[C@@H](CCCCN)C(=O)N[C@@H](Cc2ccc(O)cc2)C(=O)N[C@H](C(=O)N[C@@H](Cc2ccccc2)C(N)=O)C(C)C)NC(=O)[C@H](Cc2c[nH]c4ccccc24)NC(=O)[C@H](CCCCN)NC(=O)[C@H](Cc2c[nH]cn2)NC(=O)[C@H]([C@@H](C)O)NC(=O)[C@H](CCCNC(=N)N)NC(=O)[C@H](CO)NC3=O)NC(=O)[C@H](CCCNC(=NC)NC)NC(=O)[C@H](CC(=O)O)NC(=O)[C@H](CC(N)=O)NC(=O)[C@H](CC(=O)O)NC(=O)[C@@H]2CCCN2C1=O` [compound 312] (H-DCLGFMRKCIPDND[Arg(Me2s)]CCRPNLVCSRTHKWCKYVF-NH2; disulfide 2-17, 9-23, 16-30), the IC50 stood at 140 nM in assay [1] (IonWorks Quattro, Use); 150 nM in assay [2] (Use); 9.67 µM in assay [3] (setting [4]).

Take `CC[C@H](C)[C@@H]1NC(=O)[C@@H]2CSSC[C@@H]3NC(=O)[C@H](C(C)C)NC(=O)[C@H](CC(C)C)NC(=O)[C@H](CC(N)=O)NC(=O)[C@@H]4CCCN4C(=O)[C@H](CCCNC(=N)N)NC(=O)[C@H](CSSC[C@H](NC(=O)[C@@H](N)CC(=O)O)C(=O)N[C@@H](CC(C)C)C(=O)NCC(=O)N[C@@H](Cc4ccccc4)C(=O)N[C@@H](CCSC)C(=O)N[C@@H](CCCNC(=N)N)C(=O)N[C@@H](CCCCN)C(=O)N2)NC(=O)[C@H](CSSC[C@@H](C(=O)N[C@@H](CCCCN)C(=O)N[C@@H](Cc2ccc(O)cc2)C(=O)N[C@H](C(=O)N[C@@H](Cc2ccccc2)C(N)=O)C(C)C)NC(=O)[C@H](Cc2c[nH]c4ccccc24)NC(=O)[C@H](CCCCN)NC(=O)[C@H](Cc2c[nH]cn2)NC(=O)[C@H]([C@@H](C)O)NC(=O)[C@H](CCCNC(=N)N)NC(=O)[C@H](CO)NC3=O)NC(=O)[C@H](CCCCN(C)C)NC(=O)[C@H](CC(=O)O)NC(=O)[C@H](CC(N)=O)NC(=O)[C@H](CC(=O)O)NC(=O)[C@@H]2CCCN2C1=O` [compound 313]: the IC50 in assay [1] (IonWorks Quattro, Use) was determined as 190 nM; in assay [2] (Use), 130 nM; in assay [3] (IWQ Use Nav1.5 (μM)) it was 10.1 µM.

In the case of `CC[C@H](C)[C@@H]1NC(=O)[C@@H]2CSSC[C@@H]3NC(=O)[C@H](C(C)C)NC(=O)[C@H](CC(C)C)NC(=O)[C@H](CC(N)=O)NC(=O)[C@@H]4CCCN4C(=O)[C@H](CCCNC(=NC)NC)NC(=O)[C@H](CSSC[C@H](NC(=O)[C@@H](N)CC(=O)O)C(=O)N[C@@H](CC(C)C)C(=O)NCC(=O)N[C@@H](Cc4ccccc4)C(=O)N[C@@H](CCSC)C(=O)N[C@@H](CCCNC(=N)N)C(=O)N[C@@H](CCCCN)C(=O)N2)NC(=O)[C@H](CSSC[C@@H](C(=O)N[C@@H](CCCCN)C(=O)N[C@@H](Cc2ccc(O)cc2)C(=O)N[C@H](C(=O)N[C@@H](Cc2ccccc2)C(N)=O)C(C)C)NC(=O)[C@H](Cc2c[nH]c4ccccc24)NC(=O)[C@H](CCCCN)NC(=O)[C@H](Cc2c[nH]cn2)NC(=O)[C@H]([C@@H](C)O)NC(=O)[C@H](CCCNC(=N)N)NC(=O)[C@H](CO)NC3=O)NC(=O)[C@H](CCCCN)NC(=O)[C@H](CC(=O)O)NC(=O)[C@H](CC(N)=O)NC(=O)[C@H](CC(=O)O)NC(=O)[C@@H]2CCCN2C1=O` [compound 315], the IC50 in assay [1] came to 140 nM; in assay [2] (Use) it was 100 nM; in assay [3] (IWQ Use Nav1.5 (μM)), 10.5 µM.

For the origin of these results see patent publication US9340590B2 (priority 2011, dated 2016).
